Data set [1] can be described thus: Oral bioavailability in overnight-fasted male Sprague-Dawley rat at 3 mg/kg measured upto 72 hrs by LCMS analysis. It counts as ADME, organism-based. Particulars: in vivo.
A short description of data set [2]: Kinetic solubility of compound at pH 6.5 measured after 30 mins by nephelometry. It counts as physicochemical. Particulars: buffer, pH 6.5, read-out: Kinetic_solubility.
Data set [3] is described as follows: Cmax in overnight-fasted male Sprague-Dawley rat at 3 mg/kg, po or 1 mg/kg, iv measured upto 72 hrs by LCMS analysis. It counts as ADME, organism-based. As to conditions: in vivo.
Data set [4] is described as follows: Ratio of drug concentration in Sprague-Dawley rat brain to plasma at 1 uM measured for 5 to 60 mins by LCMS analysis. Particulars: time 5-60 min. It counts as ADME, cell-free.
Data set [5] has as its target Albumin (Homo sapiens, UniProt P02768). The data set can be described thus: Protein binding to albumin (unknown origin) in ALBUMAX medium. It counts as ADME. Particulars: read-out: PB (converted).
For data set [6], the system named is Plasmodium falciparum. The experiment in a line: Antiparasitic activity against asexual blood stage Plasmodium falciparum 3D7 incubated for 72 hrs by SYBR Green assay. It counts as functional, organism-based. Particulars: 3D7, 72 h.
The nature of data set [7]: Metabolic stability in human liver microsomes assessed as intrinsic clearance at 0.5 uM incubated for 60 mins in presence of NADPH by tandem quadrupole-Time of Flight MS. It counts as ADME, Microsome. As to conditions: 1 h. (Liver microsomes are a subcellular fraction often used to study metabolism.)
A short description of data set [8]: Metabolic stability in Sprague-Dawley rat hepatocytes assessed as intrinsic clearance at 0.5 uM measured per 0.5 million cells incubated for 240 mins by tandem quadrupole-Time of Flight MS. It counts as ADME, cell-based, Hepatocyte. Particulars: 4 h.
A short description of data set [9]: Metabolic stability in human hepatocytes assessed as intrinsic clearance at 0.5 uM measured per 1.5 million cells incubated for 240 mins by tandem quadrupole-Time of Flight MS. It counts as ADME, cell-based, Hepatocyte. As to conditions: 4 h.
A short description of data set [10]: Oral absorption in overnight-fasted male Sprague-Dawley rat at 3 mg/kg measured upto 72 hrs by LCMS analysis. It counts as ADME, organism-based. Particulars: in vivo.
Data set [11] has as its target Dihydroorotate dehydrogenase (quinone), mitochondrial (Homo sapiens, UniProt Q02127). The experiment in a line: Inhibition of C-terminal His6-tagged recombinant human DHODH (29 to 395 residues) N-terminally truncated soluble domain extracted from Escherichia coli phage resistant BL21-DE3 using CoQD/DHA/DCIP as substrates.
Data set [12] can be described thus: Cytotoxicity against human Jurkat cells by Cell Titer Glo assay. It counts as toxicity, cell-based. (In general: In ATP-based viability assays light output follows the ATP content of the culture.)
Data set [13] is described as follows: Plasma protein binding in rat measured for 6 hrs by rapid equilibrium dialysis. It counts as ADME, cell-free.
Data set [14] is described as follows: Cytotoxicity against human HepG2 cells by Cell Titer Glo assay. It counts as toxicity, cell-based.
For data set [15], the system named is Plasmodium falciparum. The data set can be described thus: Antiparasitic activity against ring-stage Plasmodium falciparum D10 transformed with yeast DHODH incubated for 72 hrs by SYBR Green assay. It counts as functional, organism-based. As to conditions: D10, 72 h.
Data set [16] in a line: Plasma protein binding in human measured for 6 hrs by rapid equilibrium dialysis. It counts as ADME, cell-free.
Data set [17] can be described thus: Drug excretion in Sprague-Dawley rat urine at 1 mg/kg, iv. As to conditions: read-out: Drug excretion. It counts as ADME, organism-based.
The nature of data set [18]: Protein binding in human hepatocytes. It counts as ADME, cell-based, Hepatocyte. Particulars: read-out: PB (converted).
The nature of data set [19]: Half life in overnight-fasted male Sprague-Dawley rat at 3 mg/kg, po or 1 mg/kg, iv measured upto 72 hrs by LCMS analysis. It counts as ADME, organism-based. As to conditions: in vivo.
Data set [20] has as its target T1, Cytochrome P450 2C8 (Homo sapiens, UniProt P10632).
T1 sequence (P10632 whole entry): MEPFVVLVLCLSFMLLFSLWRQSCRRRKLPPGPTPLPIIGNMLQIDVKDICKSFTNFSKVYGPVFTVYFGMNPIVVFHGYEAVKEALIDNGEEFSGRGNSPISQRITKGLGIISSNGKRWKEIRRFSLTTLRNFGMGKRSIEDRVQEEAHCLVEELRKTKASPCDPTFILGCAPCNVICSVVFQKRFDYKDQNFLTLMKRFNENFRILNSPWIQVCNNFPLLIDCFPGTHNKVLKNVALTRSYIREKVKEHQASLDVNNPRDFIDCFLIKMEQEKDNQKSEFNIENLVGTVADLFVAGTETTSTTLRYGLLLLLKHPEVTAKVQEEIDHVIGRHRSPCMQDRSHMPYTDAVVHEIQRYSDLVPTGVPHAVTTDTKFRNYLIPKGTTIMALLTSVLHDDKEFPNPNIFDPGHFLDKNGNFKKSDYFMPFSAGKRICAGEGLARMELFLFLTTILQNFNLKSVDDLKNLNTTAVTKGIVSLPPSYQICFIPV
The experiment in a line: Inhibition of CYP2C8 in human liver microsomes. It counts as ADME, Microsome.

The subject of data set [21] is Plasmodium falciparum. The experiment in a line: Antiparasitic activity against Plasmodium falciparum 3D7 assessed as lag time before killing at 10 times EC50 pretreated for 120 hrs followed by compound removal and replacement of media without compound measured after 28 days by cell killing assay. It counts as functional.
Data set [22] has as its system Plasmodium falciparum. The experiment in a line: Antiparasitic activity against Plasmodium falciparum 3D7 assessed as parasitic reduction ratio at 10 times EC50 pretreated for 120 hrs followed by compound removal and replacement of media without compound measured after 28 days by cell killing assay. It counts as functional.
Data set [23] concerns the target T2, Cytochrome P450 2B6 (Homo sapiens, UniProt P20813).
T2 sequence (P20813 whole entry): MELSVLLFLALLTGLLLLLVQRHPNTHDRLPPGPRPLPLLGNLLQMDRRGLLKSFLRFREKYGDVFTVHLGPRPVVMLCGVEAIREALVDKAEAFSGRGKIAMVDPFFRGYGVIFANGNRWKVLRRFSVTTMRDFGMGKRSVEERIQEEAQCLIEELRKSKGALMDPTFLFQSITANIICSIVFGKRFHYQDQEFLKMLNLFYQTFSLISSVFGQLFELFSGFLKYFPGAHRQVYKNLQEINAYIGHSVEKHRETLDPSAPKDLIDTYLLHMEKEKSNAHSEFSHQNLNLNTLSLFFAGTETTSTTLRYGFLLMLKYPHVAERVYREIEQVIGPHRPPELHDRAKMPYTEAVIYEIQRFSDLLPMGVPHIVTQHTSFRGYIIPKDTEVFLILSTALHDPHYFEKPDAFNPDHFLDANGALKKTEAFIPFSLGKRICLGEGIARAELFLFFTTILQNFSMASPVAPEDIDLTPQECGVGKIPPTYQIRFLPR
The data set can be described thus: Inhibition of CYP2B6 in human liver microsomes. It counts as ADME, Microsome.

In data set [24] the target is Cytochrome P450 3A4 (Homo sapiens, UniProt P08684). The data set can be described thus: Inhibition of CYP3A4 in human liver microsomes. It counts as ADME, Microsome.
Sequence of Cytochrome P450 3A4 (P08684 whole entry): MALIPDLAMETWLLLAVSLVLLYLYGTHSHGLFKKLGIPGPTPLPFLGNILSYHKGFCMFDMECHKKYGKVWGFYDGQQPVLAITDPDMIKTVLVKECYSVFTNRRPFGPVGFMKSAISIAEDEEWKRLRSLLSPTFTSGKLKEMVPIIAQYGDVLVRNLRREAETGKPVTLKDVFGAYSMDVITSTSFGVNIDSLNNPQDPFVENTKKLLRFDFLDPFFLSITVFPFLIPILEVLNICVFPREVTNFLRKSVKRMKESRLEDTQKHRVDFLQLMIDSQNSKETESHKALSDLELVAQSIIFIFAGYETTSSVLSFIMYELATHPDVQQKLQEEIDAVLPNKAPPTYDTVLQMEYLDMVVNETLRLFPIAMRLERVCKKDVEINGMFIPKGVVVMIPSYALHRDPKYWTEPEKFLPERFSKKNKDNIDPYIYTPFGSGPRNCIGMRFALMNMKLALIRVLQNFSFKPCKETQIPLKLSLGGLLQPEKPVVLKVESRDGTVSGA
For data set [25], the target named is Cytochrome P450 2D6 (Homo sapiens, UniProt P10635). The data set can be described thus: Inhibition of CYP2D6 in human liver microsomes. It counts as ADME, Microsome.
Sequence of Cytochrome P450 2D6 (P10635 whole entry): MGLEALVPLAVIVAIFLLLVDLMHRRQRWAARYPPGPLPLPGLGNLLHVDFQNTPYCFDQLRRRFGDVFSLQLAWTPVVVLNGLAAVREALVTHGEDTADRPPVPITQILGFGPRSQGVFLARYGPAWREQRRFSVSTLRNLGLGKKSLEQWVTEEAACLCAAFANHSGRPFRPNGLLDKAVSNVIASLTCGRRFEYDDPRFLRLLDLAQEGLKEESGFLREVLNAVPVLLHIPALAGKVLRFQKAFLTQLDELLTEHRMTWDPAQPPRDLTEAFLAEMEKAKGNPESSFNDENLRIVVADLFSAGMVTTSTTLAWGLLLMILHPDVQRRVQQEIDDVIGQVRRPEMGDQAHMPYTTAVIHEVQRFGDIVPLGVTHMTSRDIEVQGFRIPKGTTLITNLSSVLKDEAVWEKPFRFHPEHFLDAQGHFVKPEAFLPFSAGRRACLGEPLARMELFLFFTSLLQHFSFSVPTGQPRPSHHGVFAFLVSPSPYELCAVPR
The target of data set [26] is T3, Cytochrome P450 1A2 (Homo sapiens, UniProt P05177).
T3 sequence (P05177 whole entry): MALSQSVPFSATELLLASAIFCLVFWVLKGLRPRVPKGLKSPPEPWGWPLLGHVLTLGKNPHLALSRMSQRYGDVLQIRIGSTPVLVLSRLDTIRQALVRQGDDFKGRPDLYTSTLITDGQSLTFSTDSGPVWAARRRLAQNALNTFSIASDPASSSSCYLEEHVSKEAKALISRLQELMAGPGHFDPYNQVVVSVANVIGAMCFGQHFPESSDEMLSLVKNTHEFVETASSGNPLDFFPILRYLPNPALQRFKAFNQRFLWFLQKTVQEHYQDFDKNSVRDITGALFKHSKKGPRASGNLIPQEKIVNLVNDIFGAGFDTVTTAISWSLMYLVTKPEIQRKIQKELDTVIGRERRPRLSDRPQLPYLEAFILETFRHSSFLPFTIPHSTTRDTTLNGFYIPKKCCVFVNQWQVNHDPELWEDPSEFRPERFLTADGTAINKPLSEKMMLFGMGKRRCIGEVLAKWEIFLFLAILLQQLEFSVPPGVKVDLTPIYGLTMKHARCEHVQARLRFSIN
The data set can be described thus: Inhibition of CYP1A2 in human liver microsomes. It counts as ADME, Microsome.

Data set [27] is described as follows: Partition coefficient, log D of compound at pH 7.4 measured after 24 hrs by LCMS analysis. It counts as physicochemical. As to conditions: octanol/water, pH 7.4, 24 h.
For data set [28], the target named is Cytochrome P450 2C19 (Homo sapiens, UniProt P33261). The data set can be described thus: Inhibition of CYP2C19 in human liver microsomes. It counts as ADME, Microsome.
Sequence of Cytochrome P450 2C19 (P33261 whole entry): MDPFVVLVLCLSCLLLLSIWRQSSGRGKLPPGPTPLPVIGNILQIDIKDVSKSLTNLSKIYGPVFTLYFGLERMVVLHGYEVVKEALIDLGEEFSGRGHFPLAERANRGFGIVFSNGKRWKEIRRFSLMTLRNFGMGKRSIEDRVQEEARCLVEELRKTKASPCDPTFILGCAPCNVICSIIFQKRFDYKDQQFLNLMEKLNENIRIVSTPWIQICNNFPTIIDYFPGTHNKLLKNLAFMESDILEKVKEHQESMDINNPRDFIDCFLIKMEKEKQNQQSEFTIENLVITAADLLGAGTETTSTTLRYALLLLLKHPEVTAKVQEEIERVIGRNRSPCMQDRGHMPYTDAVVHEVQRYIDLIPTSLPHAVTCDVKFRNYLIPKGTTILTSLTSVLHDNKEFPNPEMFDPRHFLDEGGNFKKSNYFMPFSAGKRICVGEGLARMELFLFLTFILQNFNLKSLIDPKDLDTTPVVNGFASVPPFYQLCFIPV
Data set [29] is described as follows: Permeability across apical to basal side in human Caco-2 cells. It counts as ADME, cell-based. (In general: Caco-2 monolayers are a common model of the intestinal barrier.)
A short description of data set [30]: Half life in human. It counts as ADME.

pEC50, pIC50: −log10 of the molar value. Converted amounts (≈) assume the structure as drawn. Where only a bound is given, the exact number is not on record here.

Sequence of Albumin (P02768 whole entry): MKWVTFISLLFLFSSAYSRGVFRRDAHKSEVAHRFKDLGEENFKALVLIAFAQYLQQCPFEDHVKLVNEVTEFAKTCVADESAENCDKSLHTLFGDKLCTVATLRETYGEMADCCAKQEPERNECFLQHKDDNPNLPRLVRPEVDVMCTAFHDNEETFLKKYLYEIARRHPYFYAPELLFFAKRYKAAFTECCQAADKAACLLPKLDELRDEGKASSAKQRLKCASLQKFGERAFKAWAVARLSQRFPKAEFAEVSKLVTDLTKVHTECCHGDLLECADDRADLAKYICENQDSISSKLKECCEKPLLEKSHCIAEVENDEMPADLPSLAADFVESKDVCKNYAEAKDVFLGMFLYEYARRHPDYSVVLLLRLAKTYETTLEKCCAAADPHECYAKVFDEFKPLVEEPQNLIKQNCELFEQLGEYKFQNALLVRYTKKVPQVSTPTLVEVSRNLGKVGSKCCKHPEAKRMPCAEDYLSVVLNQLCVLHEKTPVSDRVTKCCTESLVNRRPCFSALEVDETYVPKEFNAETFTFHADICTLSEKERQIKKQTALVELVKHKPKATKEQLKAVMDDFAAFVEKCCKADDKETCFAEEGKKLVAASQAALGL
Sequence of Dihydroorotate dehydrogenase (quinone), mitochondrial (Q02127 whole entry, the tested form may be a part): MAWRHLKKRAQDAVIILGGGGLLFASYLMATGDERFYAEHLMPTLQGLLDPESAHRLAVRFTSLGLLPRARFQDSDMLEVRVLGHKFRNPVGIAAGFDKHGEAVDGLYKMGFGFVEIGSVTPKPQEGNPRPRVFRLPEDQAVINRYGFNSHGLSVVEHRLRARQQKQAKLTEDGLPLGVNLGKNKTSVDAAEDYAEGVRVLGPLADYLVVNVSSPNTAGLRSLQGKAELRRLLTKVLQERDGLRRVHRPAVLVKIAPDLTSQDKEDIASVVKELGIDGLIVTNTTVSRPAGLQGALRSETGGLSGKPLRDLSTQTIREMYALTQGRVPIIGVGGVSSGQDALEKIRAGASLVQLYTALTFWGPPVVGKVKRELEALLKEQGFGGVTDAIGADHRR

On to `CCn1cc(C2CC2)c2c(Cc3ccc(C(F)(F)F)nc3)n(C)nc2c1=O`, for which, in [1], the F worked out at 65%. For the same compound, the solubility kinetic at 0.5 h in data set [2] was found to be 130 µM (≈ 48.9 µg/mL). Also, the maximum concentration (Cmax) (as a rule, the maximum level reached in the sampled fluid or tissue) in [3] worked out at 4.4 µM. Further, the BPR in data set [4] is listed as 0.65. The fraction unbound in [5] is 0.5. Also, the pEC50 – broadly, −log10 of the EC50, conventionally taken in molar units – in [6] is 7.66. Further, the “intrinsic clearance (CLint)” value in data set [7] stood at 9 µL/min/mg. The values for the CLH in data set [8] and in data set [9] were 2.3 µL/min and 1.2 µL/min, respectively. The same compound showed a Fa at 72 h in data set [10] of 71%. Also, the pIC50 (in general, the IC50 on a negative log10 scale, so that one unit is a factor of ten) in [11] was under 4.00.

Turning to `CC[C@@](O)(c1cnc(C(F)(F)F)c(Cl)c1)c1c2cnn(C3CC3)c(=O)c2nn1C`, in data set [1], the F came to 80%. Moreover, the solubility kinetic at 0.5 h in data set [2] is 25 µM (≈ 10.7 µg/mL). Also, the CC50 in [12] and in data set [14] was over 20 µM throughout. The fraction unbound in data set [5] was 0.709. In addition, the PPB in data set [13] is reported as 84.9%; in data set [16] it was 78.2%. For the same compound, the negative-log EC50 (pEC50) in data set [6] is 8.52; in [15], 5.42. In addition, the “intrinsic clearance (CLint)” value in data set [7] was under 3 µL/min/mg. The same compound gave a Fa at 72 h in data set [10] of 81%. Moreover, the dose excreted in data set [17] was under 1%. In addition, the negative logarithm of the IC50 (pIC50) in data set [11] was under 4.52.

As for `Cn1nc2c(=O)n(C3CC3)ncc2c1[C@](N)(c1ccc(C(F)(F)F)c(Cl)c1)C1CC1`, in [1], the F was 79%. The solubility kinetic at 0.5 h in data set [2] stood at 12.5 µM (≈ 5.47 µg/mL). In addition, the figures for the fraction unbound in [18] and in [5] were 0.335 and 0.239, respectively. In addition, the CC50 in data set [12] and in [14] was over 20 µM in each case. Further, the results for the PPB in data set [13] and in data set [16] were 86% and 90.8%, respectively. In data set [19], this compound displayed a t1/2 of 17 h. The pIC50 in data set [20] was 5.15; in data set [23], under 4.70; in data set [24], under 4.70; in [25], under 4.70; in [26], under 4.70. The negative-log EC50 (pEC50) in data set [6] is 8.15. Further, in data set [7], the “intrinsic clearance (CLint)” value is under 3 µL/min/mg. Moreover, in [21], the Time is about 26 h. Further, the “log(activity)” value in data set [22] is 3.1. In [10], the Fa at 72 h was 81%. In addition, the dose excreted in data set [17] is under 1%.

`Cn1nc2c(=O)n(C3CC3)ccc2c1[C@](O)(c1cnc(C(F)(F)F)c(Cl)c1)C(F)(F)F`: in data set [1], the F is over 63%. Also, the solubility kinetic at 0.5 h in data set [2] amounted to 20 µM (≈ 9.34 µg/mL). In addition, the fraction unbound was 0.249 in data set [18] and 0.338 in [5]. Further, the CC50 in data set [12] and in data set [14] was over 20 µM throughout. Also, the BPR in [4] is on record as 0.79. In addition, the PPB in data set [13] was 75.9%; in [16] it was 68.5%. Moreover, in data set [6], the negative-log EC50 (pEC50) was 9.00. Also, in data set [7], the “intrinsic clearance (CLint)” value was under 3 µL/min/mg. Also, the logD (as a rule, the decadic logarithm of the distribution of all forms, ionised or not, between an organic phase and buffer at a given pH) in data set [27] came to 2.3. The negative logarithm of the IC50 (pIC50) is under 4.70 in data set [23]; 5.17 in data set [28]; under 4.70 in [24]; under 4.70 in data set [25]; under 4.52 in data set [11]; under 4.70 in data set [26]. The permeability entry in [29] is “Permeable”. In [10], this compound showed a Fa at 72 h of 100%. Moreover, in [17], the dose excreted was under 1%.

For `Cc1c(C2(c3ccc(C(F)(F)F)nc3)CC2)c[nH]c1C(=O)N[C@H](C)c1nc[nH]n1`, the half-life (as a rule, how long it takes for the measured level to halve) in [30] is over 100 h.

The values are drawn from ChEMBL document CHEMBL6087456 (J Med Chem, 2025).
